For orientation: Kd means the constant that tells how readily two partners part at equilibrium.

Like-named read-outs stand apart in the source and are kept apart here. Non-standard residues stand in square brackets, D forms with d. Residues, ends and D or L forms follow the SMILES beside them. pY = N[C@@H](Cc1ccc(OP(=O)(O)O)cc1)C(=O)O

Assay in all cases: biochemical
Common to all, as to assay type: binding

The target in one assay is T1, BLNK (Homo sapiens, UniProt Q8WV28).
T1 construct: the DNA-tagged SH2 domain concentrations used in this study were <0.1 nM; made in house; host or cells: HEK293 (transient transfection; unpurified extract)
T1 sequence (Q8WV28 346-453 limits assumed): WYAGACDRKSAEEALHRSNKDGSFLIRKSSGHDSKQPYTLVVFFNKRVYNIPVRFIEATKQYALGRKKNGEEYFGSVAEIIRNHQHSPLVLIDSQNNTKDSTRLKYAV
Particulars: for remaining activity at 10 µM: read-out: percent of DMSO vehicle control.

The target of the next assay is T2, CRKL (Homo sapiens, UniProt P46109).
T2 construct: the DNA-tagged SH2 domain concentrations used in this study were <0.1 nM; made in house; host or cells: HEK293 (transient transfection; unpurified extract)
T2 sequence (P46109 14-102 limits assumed): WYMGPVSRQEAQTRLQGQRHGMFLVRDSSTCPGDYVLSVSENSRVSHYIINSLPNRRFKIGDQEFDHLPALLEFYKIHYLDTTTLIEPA

For a further assay, the target named is T3, GADS (Homo sapiens, UniProt O75791).
T3 construct: the DNA-tagged SH2 domain concentrations used in this study were <0.1 nM; made in house; host or cells: HEK293 (transient transfection; unpurified extract)
T3 sequence (O75791 58-149 limits assumed): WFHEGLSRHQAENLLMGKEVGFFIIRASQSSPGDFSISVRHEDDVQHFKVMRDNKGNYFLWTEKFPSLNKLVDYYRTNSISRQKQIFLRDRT

The target in another assay is T4, GRB2 (Homo sapiens, UniProt P62993).
T4 construct: the DNA-tagged SH2 domain concentrations used in this study were <0.1 nM; made in house; host or cells: HEK293 (transient transfection; unpurified extract)
T4 sequence (P62993 60-152 limits assumed): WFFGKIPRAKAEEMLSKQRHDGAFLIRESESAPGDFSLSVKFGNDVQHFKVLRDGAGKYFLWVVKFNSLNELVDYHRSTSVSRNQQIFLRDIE
Particulars: primary screen, 10 μM.

The next assay addresses T5, PIK3R2(SH2dom.C-term.) (Homo sapiens, UniProt O00459).
T5 construct: SH2dom.C-term. denotes SH2 domain closest to C-terminus of protein; made in house; host or cells: HEK293 (transient transfection, unpurified extract)
T5 sequence (O00459 622-716 limits assumed): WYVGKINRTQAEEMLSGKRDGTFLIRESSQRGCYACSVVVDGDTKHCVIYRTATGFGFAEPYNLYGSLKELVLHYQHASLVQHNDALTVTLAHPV
Particulars: for remaining activity at 10 µM: read-out: percent of DMSO vehicle control.

The target in a further assay is T6, PIK3R3(SH2dom.C-term.) (Homo sapiens, UniProt Q92569).
T6 construct: SH2dom.C-term. denotes SH2 domain closest to C-terminus of protein; made in house; host or cells: HEK293 (transient transfection, unpurified extract)
Particulars: for remaining activity at 10 µM: read-out: percent of DMSO vehicle control.

A further assay addresses T7, SHB (Homo sapiens, UniProt Q15464).
T7 construct: made in house; host or cells: HEK293 (transient transfection), unpurified extract
Particulars: for remaining activity at 10 µM: read-out: percent of DMSO vehicle control.

A further assay has as its target T8, SHF (Homo sapiens, UniProt Q7M4L6).
T8 construct: made in house; host or cells: HEK293 (transient transfection), unpurified extract
T8 sequence (Q7M4L6 1-423): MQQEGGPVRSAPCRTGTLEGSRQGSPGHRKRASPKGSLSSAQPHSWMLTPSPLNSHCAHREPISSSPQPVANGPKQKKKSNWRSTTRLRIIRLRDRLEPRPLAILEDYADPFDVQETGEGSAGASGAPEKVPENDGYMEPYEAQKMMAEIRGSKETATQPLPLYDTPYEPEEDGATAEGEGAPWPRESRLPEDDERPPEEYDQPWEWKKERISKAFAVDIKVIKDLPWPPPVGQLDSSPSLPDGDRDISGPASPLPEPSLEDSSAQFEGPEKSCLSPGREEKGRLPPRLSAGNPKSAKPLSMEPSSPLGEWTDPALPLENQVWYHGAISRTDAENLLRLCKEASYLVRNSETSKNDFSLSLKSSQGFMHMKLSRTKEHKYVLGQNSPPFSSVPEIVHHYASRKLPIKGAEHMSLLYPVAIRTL
Particulars: for remaining activity at 10 µM: read-out: percent of DMSO vehicle control.

In another assay the target is T9, SOCS1 (Homo sapiens, UniProt O15524).
T9 construct: made in house; host or cells: HEK293 (transient transfection), unpurified extract
T9 sequence (O15524 1-211): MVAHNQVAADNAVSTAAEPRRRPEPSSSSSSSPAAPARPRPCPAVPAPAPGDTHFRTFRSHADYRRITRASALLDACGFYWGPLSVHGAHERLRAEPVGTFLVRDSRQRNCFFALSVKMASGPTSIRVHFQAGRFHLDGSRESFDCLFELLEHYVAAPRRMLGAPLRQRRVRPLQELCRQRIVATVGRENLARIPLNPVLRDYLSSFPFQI
Particulars: for remaining activity at 10 µM: read-out: percent of DMSO vehicle control.

The target in the next assay is T10, SRMS (Homo sapiens, UniProt Q9H3Y6).
T10 construct: made in house; host or cells: HEK293 (transient transfection), unpurified extract
T10 sequence (Q9H3Y6 whole entry): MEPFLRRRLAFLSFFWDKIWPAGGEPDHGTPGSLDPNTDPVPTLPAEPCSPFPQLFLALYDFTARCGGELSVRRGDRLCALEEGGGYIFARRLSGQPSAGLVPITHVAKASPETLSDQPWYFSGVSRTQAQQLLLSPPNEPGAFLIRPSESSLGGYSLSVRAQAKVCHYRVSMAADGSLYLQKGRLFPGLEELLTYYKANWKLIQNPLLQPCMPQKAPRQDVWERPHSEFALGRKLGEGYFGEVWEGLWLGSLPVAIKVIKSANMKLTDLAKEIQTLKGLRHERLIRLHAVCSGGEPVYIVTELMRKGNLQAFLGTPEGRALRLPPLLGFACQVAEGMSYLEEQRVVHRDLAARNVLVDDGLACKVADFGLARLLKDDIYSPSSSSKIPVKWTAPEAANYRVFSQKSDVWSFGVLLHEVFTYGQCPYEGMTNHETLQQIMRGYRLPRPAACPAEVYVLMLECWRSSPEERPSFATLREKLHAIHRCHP
Particulars: for remaining activity at 10 µM: read-out: percent of DMSO vehicle control.

A further assay has as its target T11, TEC (Homo sapiens, UniProt P42680).
T11 construct: made in house; host or cells: HEK293 (transient transfection), unpurified extract
T11 sequence (P42680 1-631): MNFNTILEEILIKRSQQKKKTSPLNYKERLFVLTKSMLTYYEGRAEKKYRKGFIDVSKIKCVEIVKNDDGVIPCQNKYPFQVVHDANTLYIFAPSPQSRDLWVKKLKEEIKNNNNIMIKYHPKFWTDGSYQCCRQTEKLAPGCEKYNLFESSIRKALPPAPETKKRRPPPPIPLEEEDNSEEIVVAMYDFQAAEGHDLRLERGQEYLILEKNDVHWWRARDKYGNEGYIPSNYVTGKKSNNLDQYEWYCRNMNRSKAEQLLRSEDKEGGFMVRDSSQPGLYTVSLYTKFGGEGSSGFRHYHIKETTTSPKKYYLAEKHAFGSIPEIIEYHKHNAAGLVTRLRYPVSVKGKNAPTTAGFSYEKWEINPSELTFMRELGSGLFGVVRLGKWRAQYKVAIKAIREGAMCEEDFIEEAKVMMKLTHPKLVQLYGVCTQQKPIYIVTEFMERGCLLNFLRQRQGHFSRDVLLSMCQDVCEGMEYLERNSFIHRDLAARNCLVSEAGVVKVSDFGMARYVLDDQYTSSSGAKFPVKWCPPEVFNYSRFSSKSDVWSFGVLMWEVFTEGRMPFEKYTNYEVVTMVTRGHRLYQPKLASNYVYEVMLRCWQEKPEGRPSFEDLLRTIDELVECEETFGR

A further assay has as its target T12, TNS1 (Homo sapiens, UniProt Q9HBL0).
T12 construct: made in house; host or cells: HEK293 (transient transfection), unpurified extract

[1] abbreviates: read-out: percent of DMSO vehicle control.
The mark [2] stands for this setting: primary screen, 10 μM, read-out: percent of DMSO vehicle control.

T7 sequence (Q15464 whole entry): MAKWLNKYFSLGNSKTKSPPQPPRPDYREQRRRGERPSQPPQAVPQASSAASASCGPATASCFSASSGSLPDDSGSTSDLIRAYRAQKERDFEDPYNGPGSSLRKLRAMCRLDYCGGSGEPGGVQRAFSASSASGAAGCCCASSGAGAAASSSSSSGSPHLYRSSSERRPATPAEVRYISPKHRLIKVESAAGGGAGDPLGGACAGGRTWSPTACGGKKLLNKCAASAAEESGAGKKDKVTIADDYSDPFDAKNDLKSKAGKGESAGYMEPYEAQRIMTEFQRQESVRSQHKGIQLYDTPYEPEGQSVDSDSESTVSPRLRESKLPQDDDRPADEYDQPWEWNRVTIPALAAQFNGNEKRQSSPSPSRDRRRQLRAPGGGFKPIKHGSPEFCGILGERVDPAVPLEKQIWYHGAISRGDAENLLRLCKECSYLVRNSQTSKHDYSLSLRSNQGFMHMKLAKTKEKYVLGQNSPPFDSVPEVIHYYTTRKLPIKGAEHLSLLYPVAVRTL
T12 sequence (Q9HBL0 whole entry): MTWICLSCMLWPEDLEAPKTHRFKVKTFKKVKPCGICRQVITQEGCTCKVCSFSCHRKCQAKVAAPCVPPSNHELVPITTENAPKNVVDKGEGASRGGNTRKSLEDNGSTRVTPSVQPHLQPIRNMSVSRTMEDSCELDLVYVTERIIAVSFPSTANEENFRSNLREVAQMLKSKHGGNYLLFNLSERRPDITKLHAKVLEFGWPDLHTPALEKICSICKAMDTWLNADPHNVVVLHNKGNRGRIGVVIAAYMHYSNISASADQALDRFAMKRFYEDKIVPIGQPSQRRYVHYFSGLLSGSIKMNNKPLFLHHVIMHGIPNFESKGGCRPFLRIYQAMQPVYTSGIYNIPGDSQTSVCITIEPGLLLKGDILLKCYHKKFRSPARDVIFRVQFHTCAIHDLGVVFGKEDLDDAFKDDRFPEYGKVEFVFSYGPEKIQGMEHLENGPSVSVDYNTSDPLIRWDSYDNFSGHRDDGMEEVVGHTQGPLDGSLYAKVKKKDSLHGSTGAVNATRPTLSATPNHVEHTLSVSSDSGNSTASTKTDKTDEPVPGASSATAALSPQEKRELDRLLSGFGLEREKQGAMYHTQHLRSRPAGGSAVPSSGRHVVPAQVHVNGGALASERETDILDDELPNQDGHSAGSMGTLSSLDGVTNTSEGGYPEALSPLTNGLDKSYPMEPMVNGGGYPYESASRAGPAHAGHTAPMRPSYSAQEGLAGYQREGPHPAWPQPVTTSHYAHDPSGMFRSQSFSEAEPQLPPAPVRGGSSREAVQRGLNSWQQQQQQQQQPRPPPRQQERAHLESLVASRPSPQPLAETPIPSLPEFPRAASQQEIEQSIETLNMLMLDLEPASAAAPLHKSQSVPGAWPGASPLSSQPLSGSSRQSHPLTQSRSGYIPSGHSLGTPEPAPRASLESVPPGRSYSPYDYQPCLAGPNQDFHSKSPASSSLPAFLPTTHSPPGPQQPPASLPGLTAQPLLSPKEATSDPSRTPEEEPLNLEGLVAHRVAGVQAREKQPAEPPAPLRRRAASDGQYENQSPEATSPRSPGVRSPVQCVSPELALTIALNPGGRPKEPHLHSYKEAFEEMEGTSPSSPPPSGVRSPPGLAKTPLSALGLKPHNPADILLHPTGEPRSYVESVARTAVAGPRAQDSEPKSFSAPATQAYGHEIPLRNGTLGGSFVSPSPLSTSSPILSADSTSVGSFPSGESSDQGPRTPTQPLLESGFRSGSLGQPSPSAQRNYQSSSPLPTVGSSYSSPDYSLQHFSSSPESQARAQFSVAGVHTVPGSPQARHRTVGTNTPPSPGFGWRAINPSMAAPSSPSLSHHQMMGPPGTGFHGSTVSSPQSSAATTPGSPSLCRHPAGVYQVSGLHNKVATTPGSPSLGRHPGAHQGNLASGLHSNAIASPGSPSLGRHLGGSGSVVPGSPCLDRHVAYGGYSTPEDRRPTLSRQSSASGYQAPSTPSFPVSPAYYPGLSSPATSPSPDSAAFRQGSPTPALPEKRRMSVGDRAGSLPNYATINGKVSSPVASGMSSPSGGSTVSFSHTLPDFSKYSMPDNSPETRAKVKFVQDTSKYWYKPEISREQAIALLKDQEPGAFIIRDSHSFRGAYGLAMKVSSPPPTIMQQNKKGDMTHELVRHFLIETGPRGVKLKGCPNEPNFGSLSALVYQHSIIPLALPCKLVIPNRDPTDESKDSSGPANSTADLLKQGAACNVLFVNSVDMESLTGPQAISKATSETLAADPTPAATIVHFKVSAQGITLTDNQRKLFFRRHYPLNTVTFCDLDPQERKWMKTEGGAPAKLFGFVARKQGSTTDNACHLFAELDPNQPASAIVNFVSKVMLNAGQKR

Turning to `NC(=O)CC[C@H](NC(=O)[C@@H]1CC[C@@H]2CCN(C(=O)CCCCCC#Cc3cccc4c3CN(C3CCC(=O)NC3=O)C4=O)C[C@H](NC(=O)c3cc4cc(C(F)(F)P(=O)(O)O)ccc4[nH]3)C(=O)N21)C(=O)NC(c1ccccc1)c1ccccc1` (some centres unmarked) [SD-36], the remaining activity at 10 µM was 104% on BLNK; 18.5 ± 3.9% on PIK3R2(SH2dom.C-term.); 57.8 ± 6.8% at PIK3R3(SH2dom.C-term.); 87.7 ± 2.3% at SHB; 100 ± 5.2% at SHF; 132 ± 8.8% at SOCS1. Also, the remaining activity at 10 µM at SRMS was determined as 102 ± 1.9%. In addition, the percent of DMSO vehicle control at 10 µM on CRKL (setting [1]) turned out to be 119%; on GADS (setting [1]) it was 140.4 ± 0.2%; on TEC (setting [1]) it was 121 ± 3%; at TNS1 (setting [1]), 112.9 ± 1%. The “percent of DMSO vehicle control” value on GRB2 stood at 92.9±1.6%. The KD result at PIK3R2(SH2dom.C-term.) (dose-response) is “No Hit”.

Turning to `CC(C)(C)[C@H](NC(=O)/C=C/c1ccc(OP(=O)(O)O)cc1)C(=O)N1CCC[C@H]1C(=O)N(c1ccccc1)c1ccc(I)cc1` [STAT6-IN-3], the remaining activity at 10 µM on BLNK (primary screen, 10 μM) was 145 ± 22.5%; at CRKL (setting [2]), 102 ± 19.9%; on GADS (setting [2]), 76.5 ± 7.9%; on PIK3R2(SH2dom.C-term.) (primary screen, 10 μM) it was 6.1 ± 1.6%; on PIK3R3(SH2dom.C-term.) (primary screen, 10 μM), 26.9 ± 10.2%; on SHB (primary screen, 10 μM), 53.4 ± 23.5%. Further, the remaining activity at 10 µM was 89.5 ± 4.6% at SHF (primary screen, 10 μM); 95.9 ± 35.6% at SOCS1 (primary screen, 10 μM); 8.5 ± 53.2% on SRMS (primary screen, 10 μM); 136 ± 22.9% at TEC (setting [2]); 88.4 ± 24.5% on TNS1 (setting [2]). Further, at GRB2, the “percent of DMSO vehicle control” value was determined as 72.4±21.8%. Besides, the Kd on PIK3R2(SH2dom.C-term.) (dose-response, read-out: KD) turned out to be 490 ± 80 nM; at PIK3R3(SH2dom.C-term.) (dose-response, read-out: KD) it was 1020 ± 260 nM. Further, the KD result on SRMS (dose-response) is recorded as “No Hit”.

`CC[C@H](C)[C@H](NC(=O)[C@H](CCC(=O)O)NC(=O)[C@H](CCC(=O)O)NC(=O)[C@H](Cc1ccc(OP(=O)(O)O)cc1)NC(C)=O)C(=O)N[C@@H](CCC(=O)O)C(N)=O` [Ac-pYEEIE-NH2] (Ac-[pY]EEIE-NH2): the “percent of DMSO vehicle control” value at BLNK (primary screen, 10 μM) came out at 118.9%; at CRKL (primary screen, 10 μM), 131.3%; at GADS (primary screen, 10 μM), 115.5%; at GRB2, 77.1%; on PIK3R2(SH2dom.C-term.) (primary screen, 10 μM), 49.5±7.1%; on PIK3R3(SH2dom.C-term.) (primary screen, 10 μM), 27.7±0.9%. The “percent of DMSO vehicle control” value on SHB (primary screen, 10 μM) stood at 117.6%; on SHF (primary screen, 10 μM), 60.2%; at SOCS1 (primary screen, 10 μM), 128.1%; on SRMS (primary screen, 10 μM), 62.7±1.1%; on TEC (primary screen, 10 μM) it was 119.3%; at TNS1 (primary screen, 10 μM), 161.1%. This compound also gave a Kd on PIK3R3(SH2dom.C-term.) of 14900 nM.

(Values after paper PMC12951562, “SH2scan: Mapping SH2 Domain-Ligand Binding Selectivity for Inhibitors and Degraders” (Journal of Medicinal Chemistry, 2026).)
